Patent US20230220037A1, “NOVEL USE” (GlaxoSmithKline Intellectual Property (No.3) Limited, priority 0001, published 2023)
“Also recorded” adds a separate entry of the source.

How the values were obtained:
PACAP-38 = conditions: treatment with sumatriptan; cited from earlier work
rats [1] = conditions: inflammatory soup infusion; historical data; cited from earlier work
TRPM3 (SEQ ID NO: 2) = biological target: T1, TRPM3 (SEQ ID NO: 2) (Homo sapiens, UniProt Q9HCF6); test: Calcium mobilisation assay, HEK MSR II cells expressing canonical TRPM3; type: cell-based; conditions: for Relative agonist potency of the isomers of CIM0216 in calcium mobilisation assay: R-isomer vs S-isomer
T1 construct: expressed in transfected cells; host or cells: HEK MSR II cells transduced with BacMam virus (codon optimised cDNA)
Experimental: (§1) Example 3—Calcium mobilisation assay and cell lines Calcium mobilisation assays were performed in HEK MSR II cells loaded with the calcium indicator dye Fluo4. The cells were induced to express TRPM3 (SEQ ID NO: 2) or mutants thereof by transducing them with Bacmam virus containing the codon optimised cDNA sequence for the required TRPM3 variant at a multiplicity of infection of approximately 40 for 48 hours prior to the experiment. Cells were incubated in the presence of FLUO4-AM and TRPM3 inhibitors for approx 1.5 hrs prior to transfer to a FLIPR where the cells were treated with TRPM3 agonists to induce calcium mobilisation. Fluo4 fluorescence was monitored for 10 min. As a positive control the cells were then treated with the calcium ionophore ionomycin and the fluorescence monitored for a further 3 min.

TRPM3 [2] = type: cell-based, mouse; conditions: for TRPM3 dependence of agonist-induced PACAP release: mouse DRG and TG cells, wild type vs Trpm3 knockout
TRPM3 [3] = test: CGRP release assay, wild type and Trpm3 knock out DRG and TG neurons; type: cell-based, mouse; conditions: for CGRP release from Trpm3 deficient sensory neurons: Trpm3 knock out DRG and TG neurons; for CGRP release from wild type sensory neurons: wild type DRG and TG neurons
[4] = biological target: T2, variant of SEQID NO: 2 having the R1670Q mutation (Homo sapiens, UniProt Q9HCF6, R1695Q); test: Calcium mobilisation assay, HEK MSR II cells expressing TRPM3 R1670Q variant; type: cell-based
T2 construct: expressed in transfected cells; host or cells: HEK MSR II cells transduced with BacMam virus (codon optimised cDNA)
Experimental: as §1

TRPM3 [5] = type: cell-based, C57BL/6NJ mice and Sprague Dawley rats; conditions: cultured TG neurons; agonist 30 min at 37° C.; ELISA
TRPM3 [6] = biological target: T3, TRPM3 (Mus musculus, UniProt J9SQF3); parameters: trigeminal neurons from mice; host or cells: trigeminal neurons from mice; conditions: Vriens et al., Neuron 2011; cited from earlier work
rats [7] = test: Five-day rat dural infusion migraine model, periorbital von Frey testing; type: in vivo; conditions: for Sensitivity to periorbital von Frey stimulation compared to vehicle treated animals: Day 5 (after 4 infusions)
Experimental: The five-day rat Dural infusion migraine model is based on repeated inflammatory dural stimulation to mimic the repeated activation of dural afferents believed to occur in patients with recurrent migraine headache. In this model, rats are tested in the periorbital region for mechanical allodynia (a pain response to stimuli which are not normally painful) using von Frey fibres, which are small calibrated fibres which deliver a calibrated amount of force.
The surgery, infusion, and testing followed the modification of the method of Oshinsky & Gomoncharconsiri, 2007, supra. Briefly, rats were habituated and trained for 1-2 weeks and then fitted with a stainless-steel cannula (22GA, Plastics One) under isoflurane anaesthesia. […] Special attention was given not to disturb the dura. A custom flange guide cannula (22GA, Plastics One) was inserted into the hole (cut 0.5 mm below pedestal). The cannula was fixed to the bone with small screws and dental cement. A dummy that extended just past the end of the cannula was inserted to prevent scar tissue from forming, and thus clogging the cannula. Animals were allowed 1-2 weeks of recovery before testing and infusions began.
Periorbital thresholds were monitored during the recovery period to ensure the thresholds returned to pre-surgery baselines. […] Extra animals were included to account for any post-surgery animal that needed to be excluded.
After recovering from surgery, animals were infused supra-durally with treatments according to Table 1 for 5 consecutive days. Under isoflurane, the animal's nose was place in the nose cone of the anaesthesia machine. Using a haemostat, the base of the flange cannula was clasped, and the dummy cannula was removed. A custom cannula injector was inserted into the flange cannula. With a Hamilton syringe and infusion pump at a rate of 1.759 μl/min 15 μl of formulations was delivered supra-durally.
Animals were randomly assigned to a treatment group (A-C) using a software generated randomization scheme. From the first day of sensitization, each animal was tested routinely (every 2-3 days) for changes in periorbital sensitivity by a blinded investigator.
Pre-infusion sensory testing occurred on Day 1 of the testing schedule to provide a point of comparison for subsequent testing. Sensory testing occurred according to the testing schedule established in Table 1, and prior to infusion when applicable. Sensory testing utilized von Frey filaments with reproducible calibrated buckling forces varying from 0.4-10 g utilizing the Chaplan up and down method. Allodynia was tested by perpendicularly touching the periorbital region causing slight buckling of the filament for approximately 5 seconds. Based on the response pattern and the force of the final filament, the periorbital threshold (g) was calculated (Chaplan et al., 1994, Quantitative assessment of tactile allodynia in the rat paw. Journal of neuroscience methods, 53(1), 55-63). The supra-dural infusions were above the dura in the right brain hemisphere; therefore, the right periorbital threshold data only was recorded. A positive response was characterized by several behavioural criteria: stroking the face with a forepaw, head withdrawal from the stimulus, and head shaking.

TRPM3 [8] = type: cell-based, C57BL/6NJ mice and Sprague Dawley rats; conditions: cultured DRG neurons; agonist 30 min at 37° C.; PS 100 μM; ELISA
TRPM3 [9] = biological target: T3, TRPM3; conditions: Held et al., PNAS 2015; cited from earlier work
[10] = HEK MSR II cells, Bacmam transduction
[11] = supra-dural infusion 5 days, Pregnenolone sulphate 5 mM, CIM0216 215 μM

T1 sequence (Q9HCF6 1-1707 isoform Q9HCF6-2): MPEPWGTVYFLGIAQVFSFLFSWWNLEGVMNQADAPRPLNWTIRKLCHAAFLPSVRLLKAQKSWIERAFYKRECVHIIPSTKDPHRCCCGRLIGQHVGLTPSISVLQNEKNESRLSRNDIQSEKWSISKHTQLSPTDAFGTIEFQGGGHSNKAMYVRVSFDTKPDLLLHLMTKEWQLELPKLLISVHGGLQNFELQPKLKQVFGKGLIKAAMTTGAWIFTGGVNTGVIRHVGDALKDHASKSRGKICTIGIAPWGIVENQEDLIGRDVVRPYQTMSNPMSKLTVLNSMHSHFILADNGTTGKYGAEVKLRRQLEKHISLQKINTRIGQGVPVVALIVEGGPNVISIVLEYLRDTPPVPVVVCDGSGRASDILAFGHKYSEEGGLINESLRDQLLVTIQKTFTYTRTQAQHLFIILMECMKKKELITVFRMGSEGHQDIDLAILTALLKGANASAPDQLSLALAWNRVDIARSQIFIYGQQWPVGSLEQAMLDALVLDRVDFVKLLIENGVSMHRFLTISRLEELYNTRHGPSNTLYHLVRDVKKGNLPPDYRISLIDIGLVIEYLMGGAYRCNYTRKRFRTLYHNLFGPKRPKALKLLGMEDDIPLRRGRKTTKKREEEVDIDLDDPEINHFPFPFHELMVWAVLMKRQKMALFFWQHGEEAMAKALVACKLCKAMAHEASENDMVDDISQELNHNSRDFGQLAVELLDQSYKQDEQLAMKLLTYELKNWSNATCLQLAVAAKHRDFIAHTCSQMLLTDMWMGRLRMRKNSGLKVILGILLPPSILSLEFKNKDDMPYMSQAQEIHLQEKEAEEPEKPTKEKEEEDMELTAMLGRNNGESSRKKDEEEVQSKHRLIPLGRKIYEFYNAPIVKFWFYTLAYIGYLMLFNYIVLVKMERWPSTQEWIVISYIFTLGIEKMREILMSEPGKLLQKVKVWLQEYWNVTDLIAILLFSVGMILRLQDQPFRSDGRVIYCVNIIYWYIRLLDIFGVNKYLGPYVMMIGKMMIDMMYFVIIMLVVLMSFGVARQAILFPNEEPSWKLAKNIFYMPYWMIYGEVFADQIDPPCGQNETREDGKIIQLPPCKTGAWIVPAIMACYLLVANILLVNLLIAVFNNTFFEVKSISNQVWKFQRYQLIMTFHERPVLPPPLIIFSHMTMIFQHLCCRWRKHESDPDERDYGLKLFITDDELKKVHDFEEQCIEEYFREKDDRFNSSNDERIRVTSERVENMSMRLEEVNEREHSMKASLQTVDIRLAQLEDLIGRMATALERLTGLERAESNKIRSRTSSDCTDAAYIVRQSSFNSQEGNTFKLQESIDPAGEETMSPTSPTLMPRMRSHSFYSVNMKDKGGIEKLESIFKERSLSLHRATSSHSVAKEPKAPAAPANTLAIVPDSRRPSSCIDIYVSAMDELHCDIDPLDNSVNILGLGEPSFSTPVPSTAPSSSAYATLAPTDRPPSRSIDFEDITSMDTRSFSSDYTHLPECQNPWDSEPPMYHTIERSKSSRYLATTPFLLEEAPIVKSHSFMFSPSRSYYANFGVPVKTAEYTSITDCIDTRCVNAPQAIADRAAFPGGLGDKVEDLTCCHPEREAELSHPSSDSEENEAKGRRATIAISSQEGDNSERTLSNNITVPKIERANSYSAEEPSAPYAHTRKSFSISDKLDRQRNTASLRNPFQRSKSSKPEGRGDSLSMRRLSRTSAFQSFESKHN
T2 sequence (Q9HCF6 1-1707 isoform Q9HCF6-2 R1670Q): as the sequence (Q9HCF6 1-1707 isoform Q9HCF6-2) above, with R1670Q counted along it
T3 sequence (J9SQF3 whole entry, the tested form may be a part): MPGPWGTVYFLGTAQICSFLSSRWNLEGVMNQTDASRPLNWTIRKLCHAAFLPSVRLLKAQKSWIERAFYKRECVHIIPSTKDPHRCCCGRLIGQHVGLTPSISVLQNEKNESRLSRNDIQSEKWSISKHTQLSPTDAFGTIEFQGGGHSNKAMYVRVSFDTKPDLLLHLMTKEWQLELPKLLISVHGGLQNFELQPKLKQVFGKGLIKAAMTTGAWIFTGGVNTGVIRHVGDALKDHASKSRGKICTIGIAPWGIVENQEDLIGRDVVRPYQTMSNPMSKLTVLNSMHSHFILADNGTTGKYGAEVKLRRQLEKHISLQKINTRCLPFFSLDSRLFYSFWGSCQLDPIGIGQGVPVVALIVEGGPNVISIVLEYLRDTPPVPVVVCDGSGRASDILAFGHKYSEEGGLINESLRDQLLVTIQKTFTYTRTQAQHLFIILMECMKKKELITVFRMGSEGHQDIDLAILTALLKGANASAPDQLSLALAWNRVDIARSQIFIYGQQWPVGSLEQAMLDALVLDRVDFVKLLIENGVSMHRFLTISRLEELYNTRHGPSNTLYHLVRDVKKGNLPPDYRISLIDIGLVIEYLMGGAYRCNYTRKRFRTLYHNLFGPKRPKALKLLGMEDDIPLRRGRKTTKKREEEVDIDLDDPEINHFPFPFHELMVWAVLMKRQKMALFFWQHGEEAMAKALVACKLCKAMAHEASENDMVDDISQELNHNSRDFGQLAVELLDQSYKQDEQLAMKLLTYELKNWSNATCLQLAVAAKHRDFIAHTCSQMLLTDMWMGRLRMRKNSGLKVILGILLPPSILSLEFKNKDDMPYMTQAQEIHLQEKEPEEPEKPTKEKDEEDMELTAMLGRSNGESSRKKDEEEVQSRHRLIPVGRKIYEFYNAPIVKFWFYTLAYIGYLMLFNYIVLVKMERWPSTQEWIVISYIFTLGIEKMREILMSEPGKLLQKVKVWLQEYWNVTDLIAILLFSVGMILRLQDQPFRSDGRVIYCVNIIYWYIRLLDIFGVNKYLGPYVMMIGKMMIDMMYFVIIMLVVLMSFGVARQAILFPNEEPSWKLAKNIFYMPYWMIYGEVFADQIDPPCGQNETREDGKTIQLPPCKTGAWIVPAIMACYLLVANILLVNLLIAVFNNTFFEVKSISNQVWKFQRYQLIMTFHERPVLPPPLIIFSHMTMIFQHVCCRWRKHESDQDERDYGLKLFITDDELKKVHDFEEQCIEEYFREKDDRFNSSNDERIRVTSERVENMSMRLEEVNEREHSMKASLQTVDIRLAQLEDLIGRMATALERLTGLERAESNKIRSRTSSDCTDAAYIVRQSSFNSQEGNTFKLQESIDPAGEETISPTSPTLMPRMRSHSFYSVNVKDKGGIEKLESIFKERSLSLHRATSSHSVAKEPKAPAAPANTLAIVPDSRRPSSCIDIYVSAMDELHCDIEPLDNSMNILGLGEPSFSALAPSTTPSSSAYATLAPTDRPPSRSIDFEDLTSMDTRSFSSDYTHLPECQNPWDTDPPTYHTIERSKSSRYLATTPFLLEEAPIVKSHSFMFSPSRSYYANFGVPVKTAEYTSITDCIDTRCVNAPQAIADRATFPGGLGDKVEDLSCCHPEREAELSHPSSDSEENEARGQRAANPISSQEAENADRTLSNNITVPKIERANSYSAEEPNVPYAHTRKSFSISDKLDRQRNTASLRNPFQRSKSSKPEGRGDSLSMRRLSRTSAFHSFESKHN

Compound | CGRP release from Trpm3 deficient sensory neurons (TRPM3 [3]) | CGRP release from TG neurons induced by TRPM3 agonist (TRPM3 [5]) | TRPM3 dependence of agonist-induced PACAP release (TRPM3 [2]) | Sensitivity to periorbital von Frey stimulation compared to vehicle treated animals (rats [7]) | Mechanical allodynia in the periorbital region (von Frey thresholds) (rats [7]; [11]) | CGRP release from wild type sensory neurons (TRPM3 [3]) | CGRP release from DRG neurons induced by TRPM3 agonist (TRPM3 [8]) | further results
CNS(=O)(=O)Cc1ccc2[nH]cc(CCN(C)C)c2c1 [sumatriptan] |  |  |  |  |  |  |  | PACAP-38 levels (PACAP-38): decreased PACAP-38 levels; Mechanical nociception sensitivity (rats [1]): alleviated
Cc1cc(NC(=O)[C@@H](C)N2CCCc3ccccc32)no1 (single isomer, unassigned) [R-isomer] |  |  |  |  |  |  |  | Relative agonist potency of the isomers of CIM0216 in calcium mobilisation assay (TRPM3 (SEQ ID NO: 2)): more potent agonist compared to the S-isomer; Relative agonist potency of the isomers of CIM0216 in calcium mobilisation assay (TRPM3 (SEQ ID NO: 2); listed as (R)-2-(3,4-dihydroquinolin-1(2H)-yl)-N-(5-methylisoxazol-3-yl)propenamide): more potent agonist than the (S)-isomer
COc1cc(CNC(=O)CCCC/C=C/C(C)C)ccc1O [capsaicin] | could be induced by capsaicin |  |  |  |  |  |  | PACAP release from Trpm3 knockout cells (TRPM3 [2]; Trpm3 knockout mouse DRG and TG cells): still responsive; CGRP release from Trpm3 deficient sensory neurons (TRPM3 [3]; listed as Capsaicin): evoked CGRP release
pregnenolone sulfate | absent | increased release of CGRP; also recorded: demonstrated to be concentration dependent; also recorded: stimulate release of CGRP | dependent on TRPM3 | effective in increasing sensitivity to periorbital von Frey (VF) stimulation as early as Day 5 | induce mechanical allodynia in the periorbital region of rats; also recorded: trigger mechanical allodynia in the periorbital region | dose-dependent release of CGRP | increased release of CGRP; also recorded: induce release of CGRP | Increase in FLUO4 fluorescence, R1670Q variant [4, 10]: induced concentration-dependent increases in FLUO4 fluorescence; Potency at the R1670Q variant relative to canonical TRPM3 ([4]; greater at R1670Q, equal multiplicities of infection): 1.8 fold; Maximal fold change in fluorescence at R1670Q variant relative to canonical ([4]; larger at R1670Q, equal multiplicities of infection): 26%; Inward current in trigeminal neurons (TRPM3 [6]): induced an inward current; CGRP release from Trpm3 deficient sensory neurons (TRPM3 [3]; listed as PS): lacking; Increase in FLUO4 fluorescence, canonical TRPM3 (TRPM3 (SEQ ID NO: 2); [10]): induced concentration-dependent increases in FLUO4 fluorescence
Cc1cc(NC(=O)C(c2ccccc2)N2CCCc3ccccc32)no1 (racemic) [CIM0216, 2-(3,4-dihydroquinolin-1(2H)-yl)-N-(5-methylisoxazol-3-yl)-2-phenylacetamide] | absent; also recorded: lacking | induced a concentration dependent release of CGRP; also recorded: stimulate release of CGRP | dependent on TRPM3 | effective in increasing sensitivity to periorbital von Frey (VF) stimulation as early as Day 5 | induce mechanical allodynia in the periorbital region of rats; also recorded: trigger mechanical allodynia in the periorbital region | dose-dependent release of CGRP | induced a concentration dependent release of CGRP; also recorded: induce release of CGRP | CGRP release from isolated mouse hind paw skin (TRPM3 [9]): induced to release CGRP; Overt adverse effects / body weight (rats [7]; [11]): do not cause overt adverse effects
